Test results published in article PMC2934701 (The Journal of Biological Chemistry, 2010).
Residue numbers refer to the chain shown, from its start.

How the values were obtained:
[1] = molecular target: T1, hTAS2R16 (ssr3-hTAS2R16) (Homo sapiens, UniProt Q9NYV7); assay: Fluo-4 calcium assay, HEK293T + Galpha16gust44; format: cell-based
T1 sequence (Q9NYV7 1-291): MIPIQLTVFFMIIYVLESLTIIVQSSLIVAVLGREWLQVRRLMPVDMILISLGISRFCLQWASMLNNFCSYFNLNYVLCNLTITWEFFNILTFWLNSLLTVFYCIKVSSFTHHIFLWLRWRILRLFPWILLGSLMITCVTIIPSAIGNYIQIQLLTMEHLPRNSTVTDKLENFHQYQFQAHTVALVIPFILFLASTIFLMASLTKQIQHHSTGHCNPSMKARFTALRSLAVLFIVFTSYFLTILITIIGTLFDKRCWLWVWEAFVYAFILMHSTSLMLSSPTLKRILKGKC

[2] = molecular target: T2, hTAS2R16 (ssr3-hTAS2R16) (Homo sapiens, UniProt Q9NYV7, E86D); assay: Fluo-4 calcium assay, HEK293T + Galpha16gust44; format: cell-based
T2 sequence (Q9NYV7 1-291 E86D): T1 sequence (Q9NYV7 1-291) with E86D

SMILES: OC[C@H]1O[C@@H](Oc2ccc(O)cc2)[C@H](O)[C@@H](O)[C@@H]1O [arbutin]
- EC50 [1]: 1.34 mM
- EC50 [2]: 10.6 mM
